In patent US8273780B2, “Polycyclic antagonists of lysophosphatidic acid receptors” (Amira Pharmaceuticals, Inc., priority 2009, dated 2012) one finds IC50 data, which are given here for 16 molecules.

Holding throughout (type): cell-based
Assay [1] has as its system human A2058 melanoma cells. Briefly: LPA1 chemotaxis assay. To be noted: 100 nM LPA, read-out: inhibition of LPA-driven chemotaxis IC50. The protocol: Chemotaxis of the A2058 human melanoma cells was measured using the Neuroprobe ChemoTx® System plates (8 μM pore size, 5.7 mm diameter sites). The filter sites were coated with 0.001% fibronectin (Sigma) in 20 mM Hepes, pH 7.4 and allowed to dry. A2058 cells were serum-starved for 24 hours, then harvested with Cell Stripper and resuspended in DMEM containing 0.1% fatty-acid-free bovine serum albumin (BSA) to a concentration of 1×10^6/ml. Cells were mixed with an equal volume of test compound (2×) in DMEM containing 0.1% fatty-acid-free BSA and incubated at 37° C. for 15 minutes. LPA (100 nM in DMEM containing 0.1% fatty-acid-free BSA) or vehicle was added to each well of the lower chamber and 50 μl of the cell suspension/test compound mix was applied to the upper portion of the ChemoTx plate. Plates were incubated at 37° C. for three hours and then the cells removed from the upper portion by rinsing with PBS and scraping. The filter was dried then stained with HEMA 3 Staining System (Fisher Scientific). The absorbance of the filter was read at 590 nm and IC50s were determined using Symyx Assay Explorer.

For a further assay, the target named is T1, Human LPA3 (Homo sapiens, UniProt Q9UBY5).
T1 construct: The full-length cDNA fragment for human LPA3 was obtained by PCR from the vector; expressed in transfected cells; cDNA from the Missouri S&T cDNA Resource Center
T1 sequence (Q9UBY5 1-353): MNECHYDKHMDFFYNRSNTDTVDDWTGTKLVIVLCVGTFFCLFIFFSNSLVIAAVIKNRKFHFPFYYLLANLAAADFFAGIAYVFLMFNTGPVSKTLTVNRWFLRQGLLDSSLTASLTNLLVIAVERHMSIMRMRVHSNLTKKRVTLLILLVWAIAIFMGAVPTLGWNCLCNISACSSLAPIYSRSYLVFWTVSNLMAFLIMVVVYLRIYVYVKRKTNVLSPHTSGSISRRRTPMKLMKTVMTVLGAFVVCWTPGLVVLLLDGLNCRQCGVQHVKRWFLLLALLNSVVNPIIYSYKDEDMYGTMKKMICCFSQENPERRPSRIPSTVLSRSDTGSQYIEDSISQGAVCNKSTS
The experiment in a line: LPA3 calcium flux assay. To be noted: CHO cells expressing human LPA3, 10 nM LPA; read-out: HLPA3 Ca Flux IC50. Here is the method: A vector containing the human LPA3 receptor cDNA was obtained from the Missouri S&T cDNA Resource Center (www.cdna.org). The full-length cDNA fragment for human LPA3 was obtained by PCR from the vector. The nucleotide sequence of the cloned human LPA3 was determined by sequencing and confirmed to be identical to the published human LPA3 sequence (NCBI accession number NM_012152). The cDNA was cloned into the pcDNA5/FRT expression plasmid and transfected in CHO cells using lipofectamine 2000 (Invitrogen Corp., USA). Clones stably expressing human LPA3 were selected using hygromycin and identified as cells that show Ca-influx in response to LPA.
(§1) Human LPA1 or LPA3 expressing CHO cells are seeded at 20,000-45,000 cells per well in a 96-well poly-D-lysine coated plate one or two days before the assay. Prior to the assay, the cells are washed once with PBS and then cultured in serum-free media overnight. On the day of the assay, a calcium indicator dye (Calcium 4, Molecular Devices) in assay buffer (HBSS with Ca^2+and Mg^2+ and containing 20 mM Hepes and 0.3% fatty-acid free human serum albumin) is added to each well and incubation continued for 1 hour at 37° C. 10 μl of test compounds in 2.5% DMSO are added to the cells and incubation continued at room temperature for 30 minutes. Cells are the stimulated by the addition of 10 nM LPA and intracellular Ca^2+ measured using the Flexstation 3 (Molecular Devices). IC50s are determined using Graphpad prism analysis of drug titration curves.
(Calcium flux is commonly read through the fluorescence of an indicator in the cells.)

In another assay the target is T2, Human LPA1 (Homo sapiens, UniProt Q92633).
T2 construct: the full-length cDNA for human LPA1 was obtained by PCR of the reverse transcription reaction; expressed in transfected cells
Briefly: LPA1 calcium flux assay. To be noted: CHO cells expressing human LPA1, 10 nM LPA; read-out: HLPA1 Ca Flux IC50. Here is the method:
A 1.1 kb cDNA encoding the human LPA1 receptor was cloned from human lung. Human lung RNA (Clontech Laboratories, Inc. USA) was reverse transcribed using the RETROscript kit (Ambion, Inc.) and the full-length cDNA for human LPA1 was obtained by PCR of the reverse transcription reaction. The nucleotide sequence of the cloned human LPA1 was determined by sequencing and confirmed to be identical to the published human LPA1 sequence (An et al. Biochem. Biophys. Res. Commun. 231:619 (1997). The cDNA was cloned into the pcDNA5/FRT expression plasmid and transfected in CHO cells using lipofectamine 2000 (Invitrogen Corp., USA). Clones stably expressing human LPA1 were selected using hygromycin and identified as cells that show Ca-influx in response to LPA.
as §1

T2 sequence (Q92633 whole entry): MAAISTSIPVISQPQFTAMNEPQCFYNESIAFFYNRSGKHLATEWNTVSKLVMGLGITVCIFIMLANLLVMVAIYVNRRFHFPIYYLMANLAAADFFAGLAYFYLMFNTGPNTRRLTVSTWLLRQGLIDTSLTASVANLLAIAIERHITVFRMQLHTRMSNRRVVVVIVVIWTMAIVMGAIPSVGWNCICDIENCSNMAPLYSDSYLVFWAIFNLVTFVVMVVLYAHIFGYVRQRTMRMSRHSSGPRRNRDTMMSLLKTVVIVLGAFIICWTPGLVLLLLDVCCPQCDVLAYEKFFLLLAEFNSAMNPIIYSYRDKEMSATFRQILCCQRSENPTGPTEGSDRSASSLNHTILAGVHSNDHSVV

In general, IC50 refers to the concentration that inhibits the measured activity by half. As for `Cc1noc(-c2ccc(-c3ccc(C4(C(=O)O)CC4)cc3)cc2)c1NC(=O)OCc1ccccc1` [Compound 4, 1-[4′-(4-Benzyloxycarbonylamino-3-methyl-isoxazol-5-yl)-biphenyl-4-yl]-cyclopropanecarboxylic acid], the IC50 was below 100 nM in assay [1], above 10000 nM on Human LPA3 and below 300 nM on Human LPA1.

For the molecule `Cc1noc(-c2ccc(-c3ccc(C4(C(=O)O)CC4)cc3)cc2)c1NC(=O)O[C@H](C)c1ccccc1Cl` [Compound 8, 1-(4′-{4-[(R)-1-(2-Chloro-phenyl)-ethoxycarbonylamino]-3-methyl-isoxazol-5-yl}-biphenyl-4-yl)-cyclopropanecarboxylic acid], the IC50 in assay [1] is below 100 nM; on Human LPA3, 300 to 1000 nM; at Human LPA1, below 300 nM.

As to `Cc1ccc([C@@H](C)OC(=O)Nc2c(C)noc2-c2ccc(-c3ccc(C4(C(=O)O)CC4)cc3)cc2)cc1` [Compound 16, 1-{4′-[3-Methyl-4-((R)-1-p-tolyl-ethoxycarbonylamino)-isoxazol-5-yl]-biphenyl-4-yl}-cyclopropanecarboxylic acid], the IC50 in assay [1] is below 100 nM; at Human LPA3 it was 1000 to 10000 nM; at Human LPA1 it was below 300 nM.

With `Cc1cccc([C@@H](C)OC(=O)Nc2c(C)noc2-c2ccc(-c3ccc(C4(C(=O)O)CC4)cc3)cc2)c1` [Compound 17, 1-{4′-[3-Methyl-4-((R)-1-m-tolyl-ethoxycarbonylamino)-isoxazol-5-yl]-biphenyl-4-yl}-cyclopropanecarboxylic acid], the IC50 in assay [1] is below 100 nM; on Human LPA3 it was 300 to 1000 nM; on Human LPA1, below 300 nM.

In the case of `Cc1noc(-c2ccc(-c3ccc(C4(C(=O)O)CC4)cc3)cc2)c1NC(=O)O[C@H](C)c1ccccc1C#N` [Compound 19, 1-(4′-{4-[(R)-1-(2-Cyano-phenyl)-ethoxycarbonylamino]-3-methyl-isoxazol-5-yl}-biphenyl-4-yl)-cyclopropanecarboxylic acid], the 50% inhibitory concentration (IC50) in assay [1] is below 100 nM; at Human LPA3, 1000 to 10000 nM; on Human LPA1, below 300 nM.

`Cc1noc(-c2ccc(-c3ccc(C4(C(=O)O)CC4)cc3)cc2)c1NC(=O)OC(C)C1=C(Cl)CCCC1` (stereo not shown) [Compound 21, 1-(4′-{4-[1-(2-Chloro-cyclohex-1-enyl)-ethoxycarbonylamino]-3-methyl-isoxazol-5-yl}-biphenyl-4-yl)-cyclopropanecarboxylic acid]: the IC50 in assay [1] was below 100 nM; at Human LPA3, below 300 nM; on Human LPA1, below 300 nM.

Turning to `Cc1noc(-c2ccc(-c3ccc(C4(C(=O)O)CC4)cc3)cc2)c1NC(=O)OC(C)c1cccc(O)c1` (stereo not shown) [Compound 28, 1-(4′-{4-[1-(3-Hydroxy-phenyl)-ethoxycarbonylamino]-3-methyl-isoxazol-5-yl}-biphenyl-4-yl)-cyclopropanecarboxylic acid], the 50% inhibitory concentration (IC50) on Human LPA3 is above 10000 nM; on Human LPA1 it was below 300 nM.

Take `CCc1noc(-c2ccc(-c3ccc(C4(C(=O)O)CC4)cc3)cc2)c1NC(=O)O[C@H](C)c1ccccc1` [Compound 29, 1-{4′-[3-Ethyl-4-((R)-1-phenyl-ethoxycarbonylamino)-isoxazol-5-yl]-biphenyl-4-yl}-cyclopropanecarboxylic acid]: the half-inhibitory concentration (IC50) in assay [1] is below 100 nM; on Human LPA3, 300 to 1000 nM; at Human LPA1 it was below 300 nM.

Regarding `CCc1noc(-c2ccc(-c3ccc(C4(C(=O)O)CC4)cc3)cc2)c1NC(=O)O[C@H](C)c1cccc(C(F)(F)F)c1` [Compound 30, 1-(4′-{3-Ethyl-4-[(R)-1-(3-trifluoromethyl-phenyl)-ethoxycarbonylamino]-isoxazol-5-yl}-biphenyl-4-yl)-cyclopropanecarboxylic acid], the half-maximal inhibitory concentration (IC50) at Human LPA3 and at Human LPA1 was below 300 nM in each case.

As to `COc1cc(-c2ccc(C3(C(=O)O)CC3)cc2)ccc1-c1onc(C)c1NC(=O)O[C@H](C)c1cccc(C(F)(F)F)c1` [Compound 31, 1-(3′-Methoxy-4′-{3-methyl-4-[(R)-1-(3-trifluoromethyl-phenyl)-ethoxycarbonylamino]-isoxazol-5-yl}-biphenyl-4-yl)-cyclopropanecarboxylic acid], the 50% inhibitory concentration (IC50) on Human LPA3 and at Human LPA1 was below 300 nM throughout.

In the case of `Cc1noc(-c2ccc(-c3ccc(C4(C(=O)O)CC4)cc3)cc2)c1NC(=O)O[C@H](C)c1cc(Br)cc(Br)c1` [Compound 32, 1-(4′-{4-[(R)-1-(3,5-Dibromo-phenyl)-ethoxycarbonylamino]-3-methyl-isoxazol-5-yl}-biphenyl-4-yl)-cyclopropanecarboxylic acid], the half-maximal inhibitory concentration (IC50) is 1000 to 10000 nM on Human LPA3 and below 300 nM on Human LPA1.

Regarding `C[C@@H](OC(=O)Nc1cnoc1-c1ccc(-c2ccc(C3(C(=O)O)CC3)cc2)cc1)c1ccccc1` [Compound 33, 1-{4′-[4-((R)-1-Phenyl-ethoxycarbonylamino)-isoxazol-5-yl]-biphenyl-4-yl}-cyclopropanecarboxylic acid], the values for the 50% inhibitory concentration (IC50) on Human LPA3 and on Human LPA1 were 1000 to 10000 nM and below 300 nM, respectively.

`Cc1noc(-c2ccc(-c3ccc(C4(C(=O)NS(C)(=O)=O)CC4)cc3)cc2)c1NC(=O)O[C@H](C)c1ccccc1` [Compound 35, {5-[4′-(1-Methanesulfonylaminocarbonyl-cyclopropyl)-biphenyl-4-yl]-3-methyl-isoxazol-4-yl}-carbamic acid (R)-1-phenyl-ethyl ester]: the half-maximal inhibitory concentration (IC50) is below 100 nM in assay [1], 1000 to 10000 nM on Human LPA3 and below 300 nM at Human LPA1.

Consider `Cc1noc(-c2ccc(-c3ccc(C4(C#N)CC4)cc3)cc2)c1NC(=O)O[C@H](C)c1ccccc1` [Compound 37, {5-[4′-(1-Cyano-cyclopropyl)-biphenyl-4-yl]-3-methyl-isoxazol-4-yl}-carbamic acid (R)-1-phenyl-ethyl ester], for which the IC50 on Human LPA3 is above 10000 nM; on Human LPA1, 1000 to 10000 nM.

As to `Cc1noc(-c2ccc(-c3ccc(C4(C(=O)NS(C)(=O)=O)CC4)cc3)cc2)c1NC(=O)O[C@H](C)c1cccc(C(F)(F)F)c1` [Compound 40, {5-[4′-(1-Methanesulfonylaminocarbonyl-cyclopropyl)-biphenyl-4-yl]-3-methyl-isoxazol-4-yl}-carbamic acid (R)-1-(3-trifluoromethyl-phenyl)-ethyl ester], the figures for the IC50 on Human LPA3 and at Human LPA1 were 300 to 1000 nM and below 300 nM, respectively.

On to `COc1cc(-c2ccc(C3(C(=O)NS(C)(=O)=O)CC3)cc2)ccc1-c1onc(C)c1NC(=O)O[C@H](C)c1cccc(C(F)(F)F)c1` [Compound 41, {5-[4′-(1-Methanesulfonylaminocarbonyl-cyclopropyl)-3-methoxy-biphenyl-4-yl]-3-methyl-isoxazol-4-yl}-carbamic acid (R)-1-(3-trifluoromethyl-phenyl)-ethyl ester], for which the half-maximal inhibitory concentration (IC50) on Human LPA3 is 300 to 1000 nM; on Human LPA1 it was below 300 nM.
